The subject of series [1] is hematopoietic stem cell formation. Kind of series: Effect on zebrafish hematopoietic stem cell formation (in situ runx-1+c-myb). In kind it is in vivo. The conditions noted are these: 36 hpf. As to the method: Zebrafish embryos were exposed 20-30 min after fertilization to differing concentrations of the compounds C10 and D1 (5 μM; 15 μM; 25 μM) or to medium containing the corresponding solvent (DMSO) concentration. Therefore, 3-5 embryos were sorted into each of three wells of a 96 well plate containing 200 μl of medium. For phenotype analysis, triplicates were imaged after 6-7 h post fertilization (hpf) at approximately shield stage, after 24 hpf and after 48 hpf. Dead +unfertilized embryos were removed. For imaging at 24 hpf +48 hpf; embryos were anesthetized using MESAB. (A) Diagramm showing the percentage of embryos at each time point either developing normal (blue color) or with the indicated phenotype. (B) representative images of embryos treated with the indicated compounds, or controls at the respective time points. (C) To additionally elucidate the influence on hematopoietic stem cell formation, approx. half of the embryos were sampled at 36 hpf and an in situ staining for runx-1+c-myb was performed. Shown are representative images of hematopoietic stem cell formation with the treatment indicated.
Embryos were exposed 20-30 min after fertilization to differing concentrations of the compounds C10 and D1 (5 μM; 15 μM; 25 μM) or to medium containing the corresponding solvent (DMSO) concentration. […]

Series [2] relates to DENV, ZIKV and KUNV. Kind of series: Inhibition of flavivirus infection, summary bounds over DENV, ZIKV and KUNV. Format: cell-based. As to the method:
Vero cells were seeded into 24-well plates at a density of 2×10^5 cells/well and grown overnight in culture medium at 37° C. with 5% CO2 prior to infection with RSV, KUNV, ZIKV as indicated. BHK-21 cells were used for DENV1-4. The virus inoculum was removed and replaced with semisolid overlays of 0.8% aquacide II (Calbiochem) in DMEM+2% FBS, and the mixture was incubated at 37° C. with 5% CO2. After 3-5 days, the cells were fixed with neutral buffered formalin (Sigma) for 3 h at room temperature, rinsed with tap water, and stained with 1% crystal violet for 10 min. The stain was removed by rinsing the cells with tap water, and the viral plaques were counted visually. Dose-response curves were plotted from the plaque number versus the log of the concentration of the test compounds.
Viral RNA was extracted using Isolate II RNA extraction kit (Bioline), and the absolute number of RNA copies determined by Taqman One Step RT-qPCR (Applied Biosystems) by extrapolation from a standard curve generated from in vitro—transcribed virus RNA.
It was decided to test the ability of C10 to inhibit the flaviviruses DENV1-4, KUNV and ZIKV, in addition to the paramyxovirus RSV, as a control.

Series [3] concerns RSV. Kind of series: IC50 in established virological assays (Table 1), RSV. The conditions noted are these: human respiratory syncytial virus. In kind it is cell-based. As to the method: In summary, a set of C10 derivatives (FIG. 12) was designed, synthesized and tested against HCV (which is considered as an established system to monitor drug effects against Flaviviridae) as well as DENV for comprehensive structure-activity relationship (SAR) analysis and target validation. IC50 and CC50 values for compound C10 were determined in established virological assays (Table 1). […] Further, said experiments underline the specificity of compound C10 for flaviviruses.

A short description of series [4]: Metabolic stability in mouse liver microsomes. The following applies: for % Remain. Mean of 2: with NADPH; for % Remain. without cofactor, Mean of 2: without NADPH cofactor. The procedure: Microsomal incubations were carried out in 96-well plates in 5 aliquots of […] each (one for each time point). […] Control incubations were performed replacing the NADPH-cofactor system with PBS. […] Incubations were performed in duplicates. Five time points over 40 minutes had been analyzed. The reactions were stopped by adding 12 volumes of 90% acetonitrile-water to incubation aliquots, followed by protein sedimentation by centrifuging at 5500 rpm for 3 minutes. […]. Supernatants were analyzed using the HPLC system coupled with tandem mass spectrometer.
The elimination constant (kel), half-life (t½) and intrinsic clearance (Clint) were determined in plot of In(AUC) versus time, using linear regression analysis (In order to indicate the quality of the linear regression analysis, the R (correlation coefficient) values are provided. In some cases, the last time point is excluded from the calculations to ensure acceptable logarithmic linearity of decay): […]
In general terms: Liver microsomes are a subcellular fraction often used to study metabolism.

The nature of series [5]: Solubilization in dosing vehicle recipes. Format: physicochemical. The procedure: The compound was assessed for solubilization in 5 different vehicle recipes: • 1. Physiological saline (0.9% NaCl solution in water) • 2. Kolliphor HS—physiological saline (20%:80%) • 3. DMSO-PEG400—physiological saline (20%:50%:30%) • 4. PEG400—5% dextrose in water (75%:25%) • 5. DMSO-Cremophor EL—5% Mannitol (10%:10%:80%)
To prepare the formulation using the DMSO-PEG400 —physiological saline (20%:50%:30%) recipe, the compound was first supplemented with the calculated volume of DMSO, vortexed for 1 minute and sonicated for 2 minutes at 40° C. Next, PEG400 and physiological saline were added. The final mixture was vortexed and sonicated for 2 minutes at 40° C. The working formulations batch was prepared for 1 h prior to the in vivo study.

In series [6] the test system is ZIKA. The series is described as follows: IC50 in established virological assays (Table 1), ZIKA. The following applies: Zika virus. In kind it is cell-based.

Read-outs that look alike come from different tables or passages of the source. Bounds are passed on as bounds.

For orientation: IC50 means the concentration that gives 50% inhibition. Higher therefore signals lower potency. The term half-life denotes the time needed for the level to fall by half in the phase considered. The low end stands for rapid decline, the high end for slow decline. Take `CCN1/C(=C\C=C\c2sc3cc(NC(C)=O)ccc3[n+]2CC)Sc2cc(NC(C)=O)ccc21.[I-]` [C10, 6-acetamido-2-((1E,3E)-3-(6-acetamido-3-ethylbenzo[d]thiazol-2(3H)-ylidene)prop-1-en-1-yl)-3-ethylbenzo[d]thiazol-3-ium iodide]: the “hematopoietic stem cell formation” value in series [1] is on record as “no difference to the WT embryos”. The EC50 was under 500 nM in series [2] (c.t., DENV, ZIKV and KUNV infection, read-out: EC50); under 100 nM in series [2] (c.t., read-out: EC50, infectious virus (plaque-forming units)); under 500 nM in series [2] (c.t., read-out: EC50, virus genomes by RT-qPCR); under 2000 nM in series [2] (p.i., DENV, ZIKV and KUNV infection, read-out: EC50); under 1700 nM in series [2] (p.i., read-out: EC50, virus genomes by RT-qPCR); under 1500 nM in series [2] (read-out: EC50, infectious virus (plaque-forming units), p.i.). Moreover, the EC50 in series [2] (read-out: EC50s for co-addition, all serotypes of DENV, ZIKV and WNV, plaque assays or qPCR) fell in the range of 10 to 100 nM. Also, the IC50 in series [3] is 4300 nM; in series [6], 100 to 200 nM. The half-life at 2 mM in series [4] (male, Balb/c, mouse, microsomes, pH 7.4) worked out at 5.79 h. Moreover, in series [4] (mouse liver microsomes), the CIint came to 5 µL/min/mg. In addition, in series [4] (mouse liver microsomes), the Kel turned out to be 0.002 min⁻¹. In addition, the “stability in mouse hepatic microsomal test system” value in series [4] (mouse, microsomes) was “good stability”. Further, the “% Remain. Mean of 2” value in series [4] (0.42 mg protein per ml, 0 min) was 100%; in series [4] (10 min), 100%; in series [4] (20 min) it was 96%; in series [4] (30 min), 95%; in series [4] (40 min), 88%. Besides, the figures for the “% Remain. without cofactor, Mean of 2” value in series [4] (0 min) and in series [4] (40 min) were 100% and 86%, respectively. For the same compound, in series [5] (5 vehicle recipes), the solubility entry was “very low solubility”. For the same compound, in series [5] (only in DMSO-PEG400-physiological saline (20%:50%:30%)), the “concentration of full dissolution” value worked out at 1000 µg/mL.

The values above are taken from patent US12527773B2, “Flavi-block: a pan-flavivirus inhibitor” (Baden-Württemberg Stiftung GmbH, priority 2020, dated 2026).
